Data set [1] addresses T1, α-glucosidase from Baker’s yeast (Saccharomyces cerevisiae, UniProt P53341).
T1 construct: purchased
Kind of data set: Glycosidase inhibition, p-nitrophenolate assay. The class given is biochemical. The protocol: (§1) An in vitro evaluation of these compounds to act as an enzyme inhibitor using a panel of commercially available glycosidases was performed (Table 1) using p-nitrophenolate assays.
(§2) The corresponding p-nitrophenyl glycoside and the inhibitors were dissolved in NaOAc buffer (0.05 M, pH = 6.0) reaching final concentrations of 1.0, 1.11, 1.25, 1.43, 1.67, 2.0, 2.5, 3.33, 5.0, and 10 mM. Further dilutions (if necessary) were made in the ratios 1:60, 1:50, 1:40, 1:30, 1:20, 1:10, and 1:5. The ice-cooled solution of the enzymes was contained between 4.0 and 4.5 U/mL. The kinetic assays were performed in 96-well microtiter plates. The following solutions were pipetted per well: p-nitrophenyl glycoside (100 μL), enzyme (50 μL), inhibitor (100 μL), and standard (p-nitrophenol, 5 μL). Immediately after addition, UV/Vis absorption was measured at 42 °C and λ = 415 nm for 20 min with a single measurement interval of 50 s.

Data set [2] addresses T2, β-galactosidase from E. coli (Escherichia coli, UniProt P00722).
T2 construct: purchased
Kind of data set: Glycosidase inhibition, p-nitrophenolate assay. The format is biochemical. The settings on record: mean of triplicate experiments. The procedure: as §1, §2

Data set [3] has as its target T3, α-galactosidase from green coffee beans (Coffea arabica, UniProt Q42656).
T3 construct: purchased
Kind of data set: Glycosidase inhibition, p-nitrophenolate assay. Conditions: mean of triplicate experiments. The class given is biochemical. The protocol:
as §1, §2

Data set [4] concerns the target β-glucosidase from almonds. Kind of data set: Glycosidase inhibition, p-nitrophenolate assay. Conditions: mean of triplicate experiments, n.a. = no activity. The format is biochemical. The protocol: as §1, §2
In data set [5] the test system is panel of commercially available glycosidases. Kind of data set: Glycosidase panel, type of inhibition and selectivity (p-nitrophenolate assays). The format is biochemical. Conditions: panel of five glycosidases. The protocol: as §1, §2
Data set [6] can be described thus: Cytotoxicity, sulforhodamine B (SRB) assay, nonmalignant cells. The format is cell-based, mouse. The settings on record: NIH 3T3 fibroblasts (nonmalignant); for IC50 at 3 days: nonmalignant NIH 3T3 mouse fibroblasts, no significant cytotoxicity; for EC50 at 3 days: mouse, as restated in the conclusion, NIH 3T3, read-out: EC50, cytotoxicity (SRB assays). The protocol:
(§3) Low or absent cytotoxicity is a mandatory requirement for subsequent therapeutic use of the compounds as glycosidase inhibitors. Therefore, their cytotoxicity was determined.
(§4) The cell lines were obtained from Department of oncology (Martin-Luther-University Halle-Wittenberg). Cultures were maintained as monolayers in RPMI 1640 medium with L-glutamine (Capricorn Scientific GmbH, Ebsdorfergrund, Germany) supplemented with 10% heat inactivated fetal bovine serum (Sigma-Aldrich Chemie GmbH, Steinheim, Germany) and penicillin/streptomycin (1%, Capricorn Scientific GmbH, Ebsdorfergrund, Germany) at 37 °C in a humidified atmosphere with 5% CO2.
(§5) The cytotoxicity of the compounds was evaluated using the SRB (Kiton-Red S, ABCR) micro culture colorimetric assay using […] cells in 96-well plates with the seeding of the cells on day 0 applying appropriate cell densities to prevent confluence of the cells during the period of the experiment. On day 1, the cells were treated with six different concentrations (1, 3, 7, 12, 20, and 30 μM); thereby, the final concentration of DMSO was always < 0.5%, generally regarded as nontoxic to the cells. On day 4, the supernatant medium was discarded; the cells were fixed with 10% trichloroacetic acid. After another day at 4 °C, the cells were washed in a strip washer and dyed with the SRB solution (100 μL, 0.4% in 1% acetic acid) for about 20 min to be followed by washing of the plates (four times, 1% acetic acid) and air-drying overnight. Furthermore, tris base solution (200 μL, 10 mM) was added to each well and absorbance was measured at λ = 570 nm employing a reader (96-wells, Tecan Spectra, Crailsheim, Germany).

A short description of data set [7]: Cytotoxicity, sulforhodamine B (SRB) assay, cancer cell panel. The class given is cell-based, human. Conditions: for EC50 at 3 days: as restated in the conclusion, human cancer cell lines, read-out: EC50, cytotoxicity (SRB assays); for IC50 at 3 days: panel of 15 human cancer cell lines, no significant cytotoxicity. The procedure:
as §3, §4, §5

Where [8] appears, read: p-nitrophenolate assay, mean of triplicate experiments, read-out: Ki, α-glucosidase from Baker’s yeast.

The results in this text go back to PMC7934981, “n-Propyl 6-amino-2,6-dideoxy-2,2-difluoro-β-D-glucopyranoside is a good inhibitor for the β-galactosidase from E. coli” (Medicinal Chemistry Research, 2021).

Read-outs that look alike come from different tables or passages of the source. Bounds are passed on as bounds.

T2 sequence (P00722 2-1024 limits assumed): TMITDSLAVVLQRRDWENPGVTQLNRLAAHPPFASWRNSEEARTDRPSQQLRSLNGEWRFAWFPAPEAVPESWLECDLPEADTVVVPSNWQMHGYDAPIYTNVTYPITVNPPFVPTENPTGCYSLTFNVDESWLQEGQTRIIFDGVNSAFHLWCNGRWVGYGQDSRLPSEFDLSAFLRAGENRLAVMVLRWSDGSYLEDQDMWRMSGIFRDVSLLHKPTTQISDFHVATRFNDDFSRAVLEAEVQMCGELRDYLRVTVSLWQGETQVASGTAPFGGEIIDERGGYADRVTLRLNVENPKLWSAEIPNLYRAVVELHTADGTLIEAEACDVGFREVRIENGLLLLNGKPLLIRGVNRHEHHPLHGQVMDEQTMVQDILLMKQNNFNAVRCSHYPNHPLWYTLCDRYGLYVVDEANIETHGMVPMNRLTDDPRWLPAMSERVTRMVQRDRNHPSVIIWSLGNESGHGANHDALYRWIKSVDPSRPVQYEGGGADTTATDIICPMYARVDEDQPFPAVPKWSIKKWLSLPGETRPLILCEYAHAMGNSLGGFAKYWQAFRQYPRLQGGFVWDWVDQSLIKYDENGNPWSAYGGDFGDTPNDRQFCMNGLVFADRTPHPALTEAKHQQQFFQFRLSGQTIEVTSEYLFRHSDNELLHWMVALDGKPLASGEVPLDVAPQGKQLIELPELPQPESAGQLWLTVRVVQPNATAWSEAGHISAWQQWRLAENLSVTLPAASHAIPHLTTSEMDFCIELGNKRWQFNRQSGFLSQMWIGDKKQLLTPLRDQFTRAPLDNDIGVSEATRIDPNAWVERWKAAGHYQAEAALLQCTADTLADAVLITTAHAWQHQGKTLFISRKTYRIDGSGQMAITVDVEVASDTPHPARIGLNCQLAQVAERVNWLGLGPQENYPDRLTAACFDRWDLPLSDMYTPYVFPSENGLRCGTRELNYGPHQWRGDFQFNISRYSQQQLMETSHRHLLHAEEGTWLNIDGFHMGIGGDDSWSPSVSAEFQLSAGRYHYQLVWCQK
T3 sequence (Q42656 16-378): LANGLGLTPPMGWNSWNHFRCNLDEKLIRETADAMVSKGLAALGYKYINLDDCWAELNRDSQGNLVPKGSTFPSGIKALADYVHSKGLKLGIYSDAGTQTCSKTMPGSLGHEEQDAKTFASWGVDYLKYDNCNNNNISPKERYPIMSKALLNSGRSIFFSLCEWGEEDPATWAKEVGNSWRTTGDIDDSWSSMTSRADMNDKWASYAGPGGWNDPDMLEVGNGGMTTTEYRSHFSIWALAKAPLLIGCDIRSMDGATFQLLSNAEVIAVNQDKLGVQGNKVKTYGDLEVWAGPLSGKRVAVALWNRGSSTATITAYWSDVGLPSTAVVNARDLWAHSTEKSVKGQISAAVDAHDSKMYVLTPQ
T1 sequence (P53341 whole entry): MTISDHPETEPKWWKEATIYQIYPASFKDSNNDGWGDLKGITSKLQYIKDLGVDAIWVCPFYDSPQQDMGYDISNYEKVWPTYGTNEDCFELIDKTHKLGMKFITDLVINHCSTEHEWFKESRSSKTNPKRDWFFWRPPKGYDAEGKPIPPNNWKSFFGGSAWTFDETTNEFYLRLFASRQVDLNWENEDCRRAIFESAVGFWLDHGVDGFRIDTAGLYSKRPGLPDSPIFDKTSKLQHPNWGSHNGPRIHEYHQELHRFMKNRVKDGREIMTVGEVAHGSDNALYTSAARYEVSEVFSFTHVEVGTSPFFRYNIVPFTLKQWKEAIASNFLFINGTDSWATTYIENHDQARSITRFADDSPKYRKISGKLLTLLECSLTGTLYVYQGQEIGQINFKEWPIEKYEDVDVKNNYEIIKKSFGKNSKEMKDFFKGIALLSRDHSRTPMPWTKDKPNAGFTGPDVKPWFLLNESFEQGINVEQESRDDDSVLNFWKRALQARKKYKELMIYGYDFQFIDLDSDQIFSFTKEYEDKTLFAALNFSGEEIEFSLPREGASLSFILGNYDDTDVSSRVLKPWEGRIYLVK

As to `CCCO[C@@H]1O[C@H](CN)[C@@H](O)[C@H](O)C1(F)F` [compound 8, n-Propyl 6-amino-2,6-dideoxy-2,2-difluoro-β-D-glucopyranoside], the inhibition constant (Ki) came to 1.83 ± 0.16 µM in data set [1] (setting [8]), 0.5 ± 0.09 µM in data set [2], 3.81 ± 0.57 µM in data set [3] and 1.76 ± 0.13 µM in data set [4]. For the same compound, the “selectivity among the glycosidases” value in data set [5] is reported as “nonselective inhibitor”. The IC50 at 3 days in data set [6] and in data set [7] was > 50 µM in each case. In addition, the EC50 at 3 days in data set [6] and in data set [7] was > 50 µM each time.
In the case of `OCCN1C[C@H](O)[C@@H](O)[C@H](O)[C@H]1CO` [Miglitol, reference compound], the Ki in data set [1] worked out at 9.92 ± 0.14 µM; in data set [2], 0.16 ± 0.06 µM; in data set [3], 13.9 ± 0.15 µM; in data set [4], 0.21 ± 0.05 µM.
As for `CCCO[C@@H]1O[C@H](CN)[C@@H](O)C(F)(F)[C@H]1O` [compound 16, n-Propyl 6-amino-3,6-dideoxy-3,3-difluoro-β-D-ribo-hexopyranoside], the inhibition constant (Ki) came out at 4.13 ± 0.26 µM in data set [1] (setting [8]), 2.16 ± 0.93 µM in data set [2] and 4.3 ± 0.24 µM in data set [3]. Also, the IC50 at 3 days in data set [6] and in data set [7] was > 50 µM throughout. Further, the EC50 at 3 days in data set [6] and in data set [7] was > 50 µM throughout.
